# Experimental data from patent US6919190B2, “Regulation of carbon assimilation” (priority 1999, dated 2005).
# How the values were obtained:
# [1] = molecular target: T1, PEP carboxylase of Corynebacterium glutamicum strain ATCC 13032 (wild-type) (Corynebacterium glutamicum, UniProt P12880); experiment: PEP carboxylase activity in crude extract, wild-type strain; assay type: biochemical; details: crude extract of ATCC 13032, relative to Complete = 100%, change in absorbance at 340 nm/min
# T1 construct: endogenous in cells; host or cells: Corynebacterium glutamicum ATCC 13032, crude extract
# T1 sequence (P12880 whole entry): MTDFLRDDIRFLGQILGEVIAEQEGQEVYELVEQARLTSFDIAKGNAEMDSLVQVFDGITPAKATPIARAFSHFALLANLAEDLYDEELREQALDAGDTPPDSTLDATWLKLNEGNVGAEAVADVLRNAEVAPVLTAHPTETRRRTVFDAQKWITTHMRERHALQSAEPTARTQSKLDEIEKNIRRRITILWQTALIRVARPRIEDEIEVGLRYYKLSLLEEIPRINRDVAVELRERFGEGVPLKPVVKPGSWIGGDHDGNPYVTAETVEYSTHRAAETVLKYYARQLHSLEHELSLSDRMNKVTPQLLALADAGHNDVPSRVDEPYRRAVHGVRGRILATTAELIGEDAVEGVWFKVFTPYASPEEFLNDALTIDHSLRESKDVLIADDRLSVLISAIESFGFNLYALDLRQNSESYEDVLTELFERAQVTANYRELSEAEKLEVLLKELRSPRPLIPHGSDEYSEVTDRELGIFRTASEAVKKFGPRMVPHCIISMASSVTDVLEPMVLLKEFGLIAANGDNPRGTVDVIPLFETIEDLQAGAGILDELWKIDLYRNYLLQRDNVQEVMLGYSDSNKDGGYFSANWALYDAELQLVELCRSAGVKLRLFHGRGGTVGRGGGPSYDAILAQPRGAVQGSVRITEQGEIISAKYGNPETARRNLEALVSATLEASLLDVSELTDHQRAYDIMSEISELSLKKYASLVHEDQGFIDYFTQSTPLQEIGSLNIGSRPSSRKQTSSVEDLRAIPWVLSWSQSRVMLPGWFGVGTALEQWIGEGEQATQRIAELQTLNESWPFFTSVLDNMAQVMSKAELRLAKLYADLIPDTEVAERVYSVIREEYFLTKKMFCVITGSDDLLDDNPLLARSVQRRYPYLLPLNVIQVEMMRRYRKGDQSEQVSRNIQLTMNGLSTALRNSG
# Description: (§1) It is possible for the measurement of the enzyme activity to use a spectrometric method (Yoshinage, T., et al., J. Biochem. 68:747-750 (1970)) and the like. For example, when the enzyme assay is measured in a continuous or kinetic mode while the reaction is occurring, the reaction can be measured spectrophotometrically by following the decrease in the absorbance (usually at 340 nanometers).
# (§2) Activity units were measured spectrophotometrically as the change in absorbance (340 nm/min) using crude extracts.
# [2] = tested on: PEP carboxylase of Corynebacterium glutamicum strain BF100 (lysine-producing); experiment: PEP carboxylase activity in crude extract, lysine-producing strain; assay type: biochemical; details: relative to Complete = 100%, change in absorbance at 340 nm/min
# Description: as §1, §2
# [3] = molecular target: T2, PEP carboxylase from a strain of Medicago sativa (Medicago sativa, UniProt Q02735); details: Vance et al., Plant Physiol. 75:261-264 (1984); cited from earlier work
# T2 sequence (Q02735 1-966): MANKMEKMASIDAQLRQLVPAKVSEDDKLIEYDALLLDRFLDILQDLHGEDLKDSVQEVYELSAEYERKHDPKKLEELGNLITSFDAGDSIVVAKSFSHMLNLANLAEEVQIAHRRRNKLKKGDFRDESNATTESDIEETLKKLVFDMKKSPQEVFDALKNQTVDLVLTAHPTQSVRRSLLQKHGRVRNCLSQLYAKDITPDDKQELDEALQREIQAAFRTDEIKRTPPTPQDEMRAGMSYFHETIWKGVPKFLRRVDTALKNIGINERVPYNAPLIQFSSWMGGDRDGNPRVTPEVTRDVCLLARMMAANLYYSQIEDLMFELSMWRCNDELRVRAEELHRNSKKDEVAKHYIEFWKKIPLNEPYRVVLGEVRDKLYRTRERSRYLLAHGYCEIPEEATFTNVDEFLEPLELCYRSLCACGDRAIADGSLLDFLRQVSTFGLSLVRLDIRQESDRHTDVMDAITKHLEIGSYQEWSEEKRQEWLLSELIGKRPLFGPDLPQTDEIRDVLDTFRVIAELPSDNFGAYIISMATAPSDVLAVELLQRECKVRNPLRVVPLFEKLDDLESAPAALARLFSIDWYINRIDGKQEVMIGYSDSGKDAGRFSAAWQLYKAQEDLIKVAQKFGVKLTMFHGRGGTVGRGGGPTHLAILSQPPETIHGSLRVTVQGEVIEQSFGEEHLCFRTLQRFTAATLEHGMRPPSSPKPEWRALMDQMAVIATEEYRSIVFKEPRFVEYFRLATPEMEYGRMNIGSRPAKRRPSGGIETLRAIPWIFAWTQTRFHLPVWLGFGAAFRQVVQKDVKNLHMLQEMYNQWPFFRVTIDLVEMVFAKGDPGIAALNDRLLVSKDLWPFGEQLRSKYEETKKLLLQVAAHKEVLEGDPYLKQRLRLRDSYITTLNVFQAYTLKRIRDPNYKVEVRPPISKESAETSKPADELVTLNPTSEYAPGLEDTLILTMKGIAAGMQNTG
smiles,measurement,setting,value
"CC(=O)SCCNC(=O)CCNC(=O)[C@H](O)C(C)(C)COP(=O)(O)OP(=O)(O)OC[C@H]1O[C@@H](n2cnc3c(N)ncnc32)[C@H](O)[C@@H]1OP(=O)(O)O [Acetyl CoA, acetyl coenzyme A]",PEP Carboxylase Activity −Acetyl CoA,[1]; acetyl CoA omitted,56%
same,PEP Carboxylase Activity −Acetyl CoA,[2]; acetyl CoA omitted,15%
"N[C@@H](CC(=O)O)C(=O)O [Aspartate, L-aspartic acid]",PEP Carboxylase Activity +Aspartate (5 mM),[1]; 5 mM aspartate,100%
same,PEP Carboxylase Activity +Aspartate (5 mM),[2]; 5 mM aspartate,17%
same,inhibition of PEP carboxylase activity,[3],not substantially inhibited
